Values quoted from earlier work as cited in patent US20210324031A1, “COMPOUNDS, COMPOSITIONS, METHODS, AND USES FOR TREATING LEPTIN RESISTANCE, OBESITY, DIABETES MELLITUS AND METABOLIC SYNDROME” (priority 2019, published 2021).
Where a SMILES comes first, the peptide text is derived from it. [ ]: non-standard residue; d: D form. The star is where a group is joined. Dolaproine = CO[C@@H]([C@@H]1CCCN1)[C@@H](C)C(=O)O; Dil = CC[C@H](C)[C@H](NC)[C@@H](CC(=O)O)OC; X1 = C[C@@H](N*)[C@@H](O)c1ccccc1; NMeV = CN[C@H](C(=O)O)C(C)C

Key:
[1] = Human cancer clinical trials
[2] = tested on: CD30+ ALCL type tumor Karpas 299

Row | Structure (SMILES) | toxicity in clinical trials [1] | control of tumor growth ([2]; ADC format, conjugated to an anti-CD30 antibody, drug to antibody ratio 2:1, MMAE dose 10 times lower than the free drug) | halt of tumor growth ([2]; free drug at maximal tolerated dose 0.3 mg/kg, compared with saline) | maximal tolerated dose ([2]; free drug, mice with human xenografted tumors)
1 | NS(=O)(=O)OC[C@H]1C[C@H](n2ccc3c(N[C@@H]4CCc5ccccc54)ncnc32)C[C@H]1O (stereo in doubt) [MLN4924, ((1R,2R,4S)-4-(4-(((R)-2,3-dihydro-1H-inden-1-yl)amino)-7H-pyrrolo[2,3-d]pyrimidin-7-yl)-2-hydroxycyclopentyl)methyl sulfamate] | toxic |  |  | 
2 | CC[C@H](C)[C@@H]([C@@H](CC(=O)N1CCC[C@H]1[C@H](OC)[C@@H](C)C(=O)N[C@H](C)[C@@H](O)c1ccccc1)OC)N(C)C(=O)[C@@H](NC(=O)[C@@H](NC)C(C)C)C(C)C [MMAE, monomethyl auristatin E] (H-[NMeV]V[Dil][Dolaproine]-X1) |  | completely control tumor growth | only slightly better than saline | 0.3 mg/kg
